Results on nine compounds are retold here after PubChem BioAssay (NCI).

Where “and” joins values, the source holds several entries; their conditions need not be identical. Identical values can stand only once.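 48-hour exposure; five concentrations; linearly interpolated endpoints. GI50: concentration for 50% inhibition of growth. TGI: total growth inhibition.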 Where a SMILES comes first, the peptide text is derived from it. The star is where a group is joined. Cbz = O=C(OCc1ccccc1)*; CH2Cl = ClC* Where only a bound is given, the exact number is not on record here.

Test systems include 786-0 renal; CAKI-1 renal; CCRF-CEM leukemia; HCC-2998 colon; M14 melanoma; NCI-H460 lung; NCI-H522 lung; OVCAR-8 ovarian; SNB-75 CNS.
Experiment in all cases: growth of human tumour cells (NCI), 48 h

As for `CC(C)CC(NC(=O)OCc1ccccc1)C(=O)NC(Cc1ccccc1)C(=O)CCl` (stereo not drawn) (Cbz-Leu-Phe-CH2Cl; configuration not given here), the TGI was found to be 3.08 µM in the test with 786-0 renal; 12.5 µM in the test on CAKI-1 renal; 0.776 µM in the test with CCRF-CEM leukemia; 26.1 µM in the test with HCC-2998 colon; 3.45 µM in the test on M14 melanoma; 18 µM in the test on NCI-H460 lung. Also, the TGI with NCI-H522 lung came to 2.74 µM; in the test on OVCAR-8 ovarian, 5.11 µM; in the test on SNB-75 CNS, 9.32 µM.

Consider `CS(=O)(=O)CCNCc1nc(-c2ccc3ncnc(Nc4ccc(OCc5cccc(C(F)(F)F)c5)cc4)c3c2)cs1`, for which the GI50 was greater than 16.5 µM with 786-0 renal; greater than 25 µM in the test on CAKI-1 renal; greater than 25 µM in the test on CCRF-CEM leukemia; greater than 25 µM with HCC-2998 colon; greater than 25 µM in the test with M14 melanoma; greater than 25 µM in the test with NCI-H460 lung. Moreover, the GI50 with NCI-H522 lung was 9.13 µM; in the test with OVCAR-8 ovarian, 11.1 µM; in the test on SNB-75 CNS it was 4.86 µM. Further, the TGI in the test on 786-0 renal, in the test with CAKI-1 renal, with CCRF-CEM leukemia, in the test with HCC-2998 colon, in the test on M14 melanoma and with NCI-H460 lung was greater than 25 µM in each case. Moreover, the figures for the TGI in the test with NCI-H522 lung, in the test with OVCAR-8 ovarian and in the test on SNB-75 CNS were greater than 25 µM, greater than 25 µM and 15.7 µM, respectively.

Turning to `O=C(N[C@@H](c1ccc(Cl)c(Cl)c1)C1CNC1)c1ccc2cnccc2c1`, the GI50 in the test with 786-0 renal is 0.0676 µM; with CAKI-1 renal, 0.068 µM; in the test on CCRF-CEM leukemia, 0.189 µM; in the test with HCC-2998 colon, 0.246 µM; in the test on M14 melanoma, 0.343 µM; in the test with NCI-H460 lung, 0.214 µM. Besides, the GI50 is 0.721 µM in the test with NCI-H522 lung, 1.45 µM in the test with OVCAR-8 ovarian and less than 0.0125 µM with SNB-75 CNS. For the same compound, the TGI is 2.34 µM with 786-0 renal; 2.27 µM with CAKI-1 renal; 14.6 µM with CCRF-CEM leukemia; 3.51 µM in the test with HCC-2998 colon; 8.4 µM in the test on M14 melanoma; 11 µM with NCI-H460 lung. Further, the figures for the TGI with NCI-H522 lung, with OVCAR-8 ovarian and in the test with SNB-75 CNS were 9.2 µM, 5.07 µM and 0.264 µM, respectively.

Regarding `COc1cc(Cn2c(-c3ccccc3)c(Cl)c3c2-c2oncc2CC3)cc(OC)c1`, the GI50 with 786-0 renal is 12.9 µM; with CAKI-1 renal, 5.24 µM; in the test on CCRF-CEM leukemia it was 3.54 µM; with HCC-2998 colon, 9.97 µM; in the test on M14 melanoma it was 4.22 µM; with NCI-H460 lung, 4.91 µM. Besides, the GI50 in the test on NCI-H522 lung was 2.15 µM; in the test on OVCAR-8 ovarian, 15.9 µM; with SNB-75 CNS it was 5.03 µM. Further, the TGI with 786-0 renal is greater than 100 µM; with CAKI-1 renal, greater than 100 µM; in the test on CCRF-CEM leukemia it was greater than 100 µM; with HCC-2998 colon, greater than 100 µM; with M14 melanoma, 18.1 µM; with NCI-H460 lung, 84 µM. The TGI with NCI-H522 lung was 10.1 µM; in the test with OVCAR-8 ovarian it was greater than 100 µM; in the test with SNB-75 CNS, 75.3 µM.

Turning to `C=C(Cl)C(Br)(CCl)CCC(Br)C(C)(C)Cl` (stereo unspecified), the GI50 with 786-0 renal was 1.67 µM; in the test with CAKI-1 renal it was 3.69 µM; with CCRF-CEM leukemia, 0.223 µM; with M14 melanoma it was 2.01 µM; with NCI-H522 lung it was 2.82 µM; in the test on OVCAR-8 ovarian it was 2.26 µM. The TGI with 786-0 renal is 3.73 µM and 3.21 µM; with CAKI-1 renal it was 8.08 µM and 10.2 µM; with CCRF-CEM leukemia, 6.34 µM and 1.38 µM; with HCC-2998 colon, 30.5 µM; in the test on M14 melanoma it was 7.74 µM and 4.9 µM; in the test with NCI-H460 lung, 20.7 µM. Besides, the TGI in the test on NCI-H522 lung is 9.26 µM and 6.43 µM; with OVCAR-8 ovarian it was 5.69 µM; in the test with SNB-75 CNS it was 11 µM.

Consider `CCOC(=O)Nc1ccc(C)c(NC(=O)OCC)c1`, for which the TGI with 786-0 renal, with CAKI-1 renal, with CCRF-CEM leukemia, in the test with HCC-2998 colon, in the test with M14 melanoma and in the test with NCI-H460 lung was greater than 100 µM throughout. The TGI in the test on NCI-H522 lung, with OVCAR-8 ovarian and in the test with SNB-75 CNS was greater than 100 µM in each case.

As for `Nc1nc(/C=C\c2ccc([N+](=O)[O-])s2)nc(N2CCCC2)n1`, the GI50 was 10.8 µM with 786-0 renal; 7.1 µM in the test on CAKI-1 renal; 1.57 µM in the test with CCRF-CEM leukemia; 4.86 µM in the test on HCC-2998 colon; 3.72 µM in the test with M14 melanoma; 3.68 µM in the test with NCI-H460 lung. Further, the figures for the GI50 with NCI-H522 lung, in the test on OVCAR-8 ovarian and in the test on SNB-75 CNS were 2.55 µM, 3.49 µM and 15.1 µM, respectively. Besides, the TGI in the test on 786-0 renal worked out at 23.6 µM; with CAKI-1 renal it was 24.6 µM; in the test on CCRF-CEM leukemia, 5.23 µM; in the test on HCC-2998 colon, 12.8 µM; in the test with M14 melanoma it was 17.1 µM; in the test with NCI-H460 lung, 16.1 µM. For the same compound, the TGI in the test with NCI-H522 lung stood at 8.67 µM; in the test on OVCAR-8 ovarian, 22.5 µM; in the test on SNB-75 CNS it was 44 µM.

Regarding `COc1c(OC[C@H](O)CN2CCOCC2)ccc2c3n(c(=NC(=O)c4cccnc4C)nc12)CCN3`, the GI50 was 0.399 µM with 786-0 renal; 0.859 µM in the test with CAKI-1 renal; 1.67 µM in the test with CCRF-CEM leukemia; 1.9 µM in the test with HCC-2998 colon; 27.8 µM in the test on M14 melanoma; 0.528 µM in the test with NCI-H460 lung. The results for the GI50 in the test with NCI-H522 lung, in the test with OVCAR-8 ovarian and in the test on SNB-75 CNS were greater than 50 µM, greater than 50 µM and 0.02 µM, respectively. Further, the TGI with 786-0 renal, in the test on CAKI-1 renal, in the test with CCRF-CEM leukemia, in the test on HCC-2998 colon, in the test on M14 melanoma and in the test on NCI-H460 lung was greater than 50 µM throughout. Further, the TGI in the test on NCI-H522 lung is greater than 50 µM; with OVCAR-8 ovarian, greater than 50 µM; in the test on SNB-75 CNS, 1.18 µM.

As for `O=C1C=CC(=O)c2cc3cc(CBr)ccc3cc21`, the GI50 was 2.28 µM in the test on 786-0 renal; 2.34 µM in the test on CAKI-1 renal; 1.89 µM in the test on CCRF-CEM leukemia; 6.16 µM in the test on HCC-2998 colon; 8.58 µM in the test on M14 melanoma; 22 µM with NCI-H460 lung. The GI50 with NCI-H522 lung was 4.33 µM; with OVCAR-8 ovarian, 5.88 µM; in the test on SNB-75 CNS, 21.5 µM. The TGI was 5.24 µM with 786-0 renal; 6.25 µM with CAKI-1 renal; greater than 100 µM in the test with CCRF-CEM leukemia; 19.2 µM in the test with HCC-2998 colon; 23.4 µM in the test with M14 melanoma; greater than 80.3 µM with NCI-H460 lung. The TGI in the test with NCI-H522 lung is greater than 25.8 µM; in the test with OVCAR-8 ovarian, greater than 77.3 µM; in the test with SNB-75 CNS, 98.1 µM.
